Earlier results in patent US20070286899A1, “Photo-composition for the treatment of joint diseases” (priority 2004, published 2007).

Tested on: patients who use methotrexate

- patients who develop gastrointestinal problems such as diarrhea and nausea: 60%
Compound: CN(Cc1cnc2nc(N)nc(N)c2n1)c1ccc(C(=O)N[C@@H](CCC(=O)O)C(=O)O)cc1 [methotrexate]
